Measurements published in PMC9611727, “Optimization of a Novel Mandelamide-Derived Pyrrolopyrimidine Series of PERK Inhibitors” (Pharmaceutics, 2022).
Where two headings read alike, the source gives them in different places.

Columns and labels:
PERK = molecular target: T1, PERK (Homo sapiens, UniProt Q9NZJ5); experiment: PERK biochemical LanthaScreen TR-FRET assay (GFP-eIF2a phosphorylation)
T1 sequence (Q9NZJ5 30-1116): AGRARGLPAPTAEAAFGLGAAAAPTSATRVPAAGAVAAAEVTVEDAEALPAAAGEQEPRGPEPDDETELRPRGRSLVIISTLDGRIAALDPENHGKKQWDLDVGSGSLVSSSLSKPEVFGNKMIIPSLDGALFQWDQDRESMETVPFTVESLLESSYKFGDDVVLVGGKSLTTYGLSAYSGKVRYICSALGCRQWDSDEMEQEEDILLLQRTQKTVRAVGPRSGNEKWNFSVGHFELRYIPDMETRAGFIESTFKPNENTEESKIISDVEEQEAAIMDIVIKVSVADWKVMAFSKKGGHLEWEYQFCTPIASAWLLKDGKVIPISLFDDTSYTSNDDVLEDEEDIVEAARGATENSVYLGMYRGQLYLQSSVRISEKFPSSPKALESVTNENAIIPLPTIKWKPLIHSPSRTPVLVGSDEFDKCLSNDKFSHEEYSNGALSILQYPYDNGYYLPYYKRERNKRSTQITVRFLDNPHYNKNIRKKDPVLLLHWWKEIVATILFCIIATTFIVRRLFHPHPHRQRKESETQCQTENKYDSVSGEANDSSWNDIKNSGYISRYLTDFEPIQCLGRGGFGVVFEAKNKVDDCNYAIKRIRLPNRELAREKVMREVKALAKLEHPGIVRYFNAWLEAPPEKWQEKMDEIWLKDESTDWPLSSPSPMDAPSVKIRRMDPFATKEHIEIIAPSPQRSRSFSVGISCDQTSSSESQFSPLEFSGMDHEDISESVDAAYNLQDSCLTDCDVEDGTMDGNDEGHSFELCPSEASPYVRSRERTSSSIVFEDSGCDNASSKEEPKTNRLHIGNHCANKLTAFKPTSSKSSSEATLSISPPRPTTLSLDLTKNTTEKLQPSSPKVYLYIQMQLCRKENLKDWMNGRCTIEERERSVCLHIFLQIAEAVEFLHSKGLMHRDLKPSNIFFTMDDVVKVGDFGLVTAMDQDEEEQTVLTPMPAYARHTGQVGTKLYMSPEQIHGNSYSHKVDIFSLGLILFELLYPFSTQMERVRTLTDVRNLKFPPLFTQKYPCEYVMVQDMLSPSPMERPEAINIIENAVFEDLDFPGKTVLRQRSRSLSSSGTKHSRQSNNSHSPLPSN
Method: Methods used to evaluate biochemical PERK activity are described and published elsewhere. In brief, biochemical PERK activity is evaluated using a LanthaScreenTM ([…]) TR-FRET assay to detect phosphorylation of a GFP-tagged eIF2a substrate (ThermoFisher). Excitation at […] of a terbium chelate donor fluorophore in an eIF2a antibody results in energy transfer to GFP acceptor fluorophore upon eIF2a phosphorylation by PERK. Reaction buffer was composed of 50 mM HEPES (pH 7.4), 10 mM MgCl2, 1 mM EGTA and 0.01% (v/v) BrijTM-35. Reactions were initiated by the addition of substrate and ATP, followed by incubation for 1 h at RT prior to addition of EDTA and the anti-peIF2a antibody. FRET was measured by an EnVision Plate Reader (PerkinElmer). Data were plotted as percent inhibition along a 10-point 3-fold dilution series of inhibitors. IC50 values were calculated using 4-parameter logistical fitting in XLFit.
The PERK activity of analog I was evaluated using cell-free biochemical assays. In these assays, PERK phosphorylation of eIF2a was assessed using a FRET-based labelled protein assay. Compounds were then evaluated for cellular activity by quantifying inhibition of eIF2a phosphorylation in HEK293 cells treated with the ER inducer tunicamycin [7].

[1] = Metabolic clearance in hepatocytes, dog; assay type: in vitro ADME; details: male, beagle, cryopreserved dog hepatocytes, read-out: Hepatocyte Clearance (t1/2 min) Dog
Method: Metabolic Clearance in Hepatocytes
Testosterone was obtained from Cerilliant (Round Rock, TX). 7-Hydroxycoumarin was obtained from Sigma-Aldrich (St.
Louis, MO). Ten-donor male pooled cryopreserved human hepatocytes, cryopreserved male Sprague Dawley rat hepatocytes, cryopreserved male ICR/CD-1 mouse hepatocytes, cryopreserved male beagle dog hepatocytes, In VitroGro HI Medium (Incubation), and InVitroGro HT Medium (Thawing) were obtained from Bioreclamation IVT (Baltimore, MD). All solvents were obtained from commercial sources and used without further purification.Test compound was prepared as a 1 mM stock solution in DMSO. A 2 µM solution of test compound and testosterone was prepared (7 - hydroxycoumarin was prepared at 20 µM) in In VitroGro HI Medium (Incubation). These solutions were placed in a sterile incubator set to maintain 37°C, 5% CO2, and 98% humidity to pre-warm. Cryopreserved hepatocytes were prepared at a concentration of 2 x 10^6 living cells/mL in incubation media and placed in the incubator to pre-warn. The compound solutions and hepatocyte mixtures were then combined at a ratio of 1:1 (v:v). The final volume of the reaction mixture was 750 µL, containing 1 µM test compound and 1 x 10^6 cells/mL. The reaction mixture was placed in the incubator on a plate shaker. After 0, 15, 30, 60, 90, and 120 minutes of incubation, 100 µL of reaction mixtures were removed from the incubation plate and mixed with 150 µL of ice-cold acetonitrile in a designated well of a 96-well crash plate. The 96-well crash plate was placed on ice for 15 min, and samples were centrifuged (3,600 rpm, 10 min, 4 °C) to precipitate protein.
The supernatants were diluted 1:1 (v/v) with water containing tolbutamide, (internal standard for positive and negative modes, respectively) in a 96-well shallow injection plate. This plate was sealed for LC-MS analysis. All measurements

[2] = cell-free TR-FRET, GFP-eIF2a substrate, read-out: PERK IC50

IC50 (PERK; [2]) [nM]	half-life at 1 µM [1] [h]	IC50 (PERK; bound stated, read-out: biochemical potency) [nM]	Compound
2.2			Cc1cc(NC(=O)[C@H](O)c2cccc(F)c2)ccc1-c1cn(C)c2ncnc(N)c12 [Compound 11, (R)-N-(4-(4-amino-7-methyl-7H-pyrrolo[2,3-d]pyrimidin-5-yl)-3-methylphenyl)-2-(3-fluorophenyl)-2-hydroxy acetamide]
1.8	5.92		Cc1nc(N)c2c(-c3ccc(NC(=O)[C@H](O)c4cccc(Cl)c4)cc3C)cn(C)c2n1 [Compound 28]
1.9	7.67		Cc1nc(N)c2c(-c3ccc(NC(=O)[C@H](O)c4cc(F)cc(F)c4)cc3C)cn(C)c2n1 [Compound 38]
2.6	3.72		Cc1nc(N)c2c(-c3ccc(NC(=O)[C@H](O)c4cc(F)cc(C(F)(F)F)c4)cc3C)cn(C)c2n1 [Compound 39]
1.4	3.87		Cc1cc(F)cc([C@@H](O)C(=O)Nc2ccc(-c3cn(C)c4nc(C)nc(N)c34)c(C)c2)c1 [Compound 41]
1	3.58	< 5	Cc1nc(N)c2c(-c3ccc(NC(=O)[C@H](O)c4cccc(Cl)c4)cc3F)cn(C)c2n1 [Compound 48]
1.9	9.45		Cc1nc(N)c2c(-c3ccc(NC(=O)[C@H](O)c4cccc(F)c4)c(F)c3C)cn(C)c2n1 [Compound 65]
11	0.65		Cc1nc(N)c2c(-c3cc(F)c(NC(=O)[C@H](O)c4cccc(F)c4)cc3C)cn(C)c2n1 [Compound 66]

Compound	IC50 (PERK; [2]) [nM]	half-life at 1 µM [1] [h]	IC50 (PERK; bound stated, read-out: biochemical potency) [nM]
Cc1nc(N)c2c(-c3ccc(NC(=O)[C@H](O)c4cccc(F)c4)cc3C)cn(C)c2n1 [Compound 24]	20	> 16.7	
Cc1nc(N)c2c(-c3ccc(NC(=O)[C@H](O)c4cccc(C(F)(F)F)c4)cc3C)cn(C)c2n1 [Compound 26]	2.8	2.17	
Cc1nc(N)c2c(-c3ccc(NC(=O)[C@H](O)c4cccc(F)c4)c(F)c3F)cn(C)c2n1 [Compound 70, (R)-N-(4-(4-amino-2,7-dimethyl-7H-pyrrolo[2,3-d]pyrimidin-5-yl)-2,3-difluorophenyl)-2-(3-fluorophenyl)-2-hydroxyacetamide]	1.5	4.47	
